{"source": "paper PMC7486443", "about": "“Generation of Phenothiazine with Potent Anti-TLK1 Activity for Prostate Cancer Therapy” (iScience, 2020)", "assay_in_all_cases": "biochemical", "design_in_all_cases": "DiscoverX KINOMEscan scanMAX competition binding panel, single concentration, percent of control; remaining binding: dose or concentration left out as unconfirmed", "settings_in_all_cases": "KINOMEscan binding, percent of control; read-out: Table S4_SCANMAX REPORT - related to Fig. 1 / Percent Control", "key": {"GSK3A": {"target": "GSK3A (Homo sapiens, UniProt P49840)", "description": "(§1) Certain PTH are potent inhibitors of TLK1 ([Ronald et al., 2013]), and by inference TLK2, as these proteins must homo- and hetero-dimerize for full activation ([Mortuza et al., 2018]), in addition to being highly similar in sequence and structure, and thus similarly targetable. […] Two noteworthy observations are that PTHs are structurally different from many known ATP competitive inhibitors, and that J54 was carefully designed based on considerations reported previously for the THD—the Kinomescan has confirmed that J54 is specific to TLKs. We should point out that although PTH were the first reported inhibitors of TLKs ([Ronald et al., 2013]), other inhibitors particularly of TLK2 have since been reported ([Kim et al., 2016]), some based on structure docking ([Mortuza et al., 2018]), although neither their potency and effects in vivo nor their potential off-target effects have not been reported as they were selected from libraries of kinase inhibitors. Supplementary file mmc2.xlsx: Table S4. SCANMAX Table, Related to Figure 1 Kinomescan of J54 inhibitory activity on human kinases."}, "PDPK1": {"target": "PDPK1 (Homo sapiens, UniProt O15530)", "description": "as §1"}, "YES": {"target": "T1, YES (Homo sapiens, UniProt P07947)", "T1 construct": "gene YES1", "description": "as §1"}, "OSR1": {"target": "T2, OSR1 (Homo sapiens, UniProt O95747)", "T2 construct": "gene OXSR1", "description": "as §1"}, "CDKL5": {"target": "CDKL5 (Homo sapiens, UniProt O76039)", "description": "as §1"}, "ERBB4": {"target": "ERBB4 (Homo sapiens, UniProt Q15303)", "sequence (Q15303 whole entry)": "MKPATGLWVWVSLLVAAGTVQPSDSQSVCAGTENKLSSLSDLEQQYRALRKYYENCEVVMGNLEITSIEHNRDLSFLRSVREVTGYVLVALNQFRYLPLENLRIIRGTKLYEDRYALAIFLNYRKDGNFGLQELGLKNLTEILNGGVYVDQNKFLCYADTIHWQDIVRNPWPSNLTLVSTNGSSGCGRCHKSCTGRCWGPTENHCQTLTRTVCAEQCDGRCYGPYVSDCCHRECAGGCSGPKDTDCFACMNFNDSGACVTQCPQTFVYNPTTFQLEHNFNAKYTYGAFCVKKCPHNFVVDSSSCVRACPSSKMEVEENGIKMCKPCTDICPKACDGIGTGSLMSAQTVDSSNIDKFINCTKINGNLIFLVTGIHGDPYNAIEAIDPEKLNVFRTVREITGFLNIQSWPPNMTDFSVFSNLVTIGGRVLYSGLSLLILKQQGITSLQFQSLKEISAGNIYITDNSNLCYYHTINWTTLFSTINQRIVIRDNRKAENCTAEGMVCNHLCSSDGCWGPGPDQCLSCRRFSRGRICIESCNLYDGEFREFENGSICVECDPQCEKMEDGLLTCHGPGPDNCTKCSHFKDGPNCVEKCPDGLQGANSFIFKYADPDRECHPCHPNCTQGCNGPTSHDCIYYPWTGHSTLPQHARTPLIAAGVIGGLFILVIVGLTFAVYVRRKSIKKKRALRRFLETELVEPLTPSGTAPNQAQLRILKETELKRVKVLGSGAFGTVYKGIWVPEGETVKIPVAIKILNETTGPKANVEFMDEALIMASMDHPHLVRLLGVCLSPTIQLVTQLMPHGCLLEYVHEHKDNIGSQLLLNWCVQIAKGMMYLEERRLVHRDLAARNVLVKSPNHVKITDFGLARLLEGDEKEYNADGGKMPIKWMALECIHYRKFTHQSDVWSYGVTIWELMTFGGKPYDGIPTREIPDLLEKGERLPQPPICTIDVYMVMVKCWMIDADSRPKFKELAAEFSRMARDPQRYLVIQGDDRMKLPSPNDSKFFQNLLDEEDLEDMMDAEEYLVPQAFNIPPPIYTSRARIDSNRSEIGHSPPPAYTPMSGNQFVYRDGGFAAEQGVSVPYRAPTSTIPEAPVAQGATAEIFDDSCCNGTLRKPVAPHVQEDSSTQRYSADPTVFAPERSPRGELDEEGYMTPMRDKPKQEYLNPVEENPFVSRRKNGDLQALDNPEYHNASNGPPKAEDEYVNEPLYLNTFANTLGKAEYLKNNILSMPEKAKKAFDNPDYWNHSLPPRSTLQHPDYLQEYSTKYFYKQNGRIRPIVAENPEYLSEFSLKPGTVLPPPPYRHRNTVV", "description": "as §1"}, "PCTK3": {"target": "T3, PCTK3 (Homo sapiens, UniProt Q07002)", "T3 construct": "gene CDK18", "description": "as §1"}, "CSNK2A2": {"target": "CSNK2A2 (Homo sapiens, UniProt P19784)", "description": "as §1"}, "TLK2": {"target": "TLK2 (Homo sapiens, UniProt Q86UE8)", "description": "as §1"}, "HIPK2": {"target": "HIPK2 (Homo sapiens, UniProt Q9H2X6)", "sequence (Q9H2X6 whole entry)": "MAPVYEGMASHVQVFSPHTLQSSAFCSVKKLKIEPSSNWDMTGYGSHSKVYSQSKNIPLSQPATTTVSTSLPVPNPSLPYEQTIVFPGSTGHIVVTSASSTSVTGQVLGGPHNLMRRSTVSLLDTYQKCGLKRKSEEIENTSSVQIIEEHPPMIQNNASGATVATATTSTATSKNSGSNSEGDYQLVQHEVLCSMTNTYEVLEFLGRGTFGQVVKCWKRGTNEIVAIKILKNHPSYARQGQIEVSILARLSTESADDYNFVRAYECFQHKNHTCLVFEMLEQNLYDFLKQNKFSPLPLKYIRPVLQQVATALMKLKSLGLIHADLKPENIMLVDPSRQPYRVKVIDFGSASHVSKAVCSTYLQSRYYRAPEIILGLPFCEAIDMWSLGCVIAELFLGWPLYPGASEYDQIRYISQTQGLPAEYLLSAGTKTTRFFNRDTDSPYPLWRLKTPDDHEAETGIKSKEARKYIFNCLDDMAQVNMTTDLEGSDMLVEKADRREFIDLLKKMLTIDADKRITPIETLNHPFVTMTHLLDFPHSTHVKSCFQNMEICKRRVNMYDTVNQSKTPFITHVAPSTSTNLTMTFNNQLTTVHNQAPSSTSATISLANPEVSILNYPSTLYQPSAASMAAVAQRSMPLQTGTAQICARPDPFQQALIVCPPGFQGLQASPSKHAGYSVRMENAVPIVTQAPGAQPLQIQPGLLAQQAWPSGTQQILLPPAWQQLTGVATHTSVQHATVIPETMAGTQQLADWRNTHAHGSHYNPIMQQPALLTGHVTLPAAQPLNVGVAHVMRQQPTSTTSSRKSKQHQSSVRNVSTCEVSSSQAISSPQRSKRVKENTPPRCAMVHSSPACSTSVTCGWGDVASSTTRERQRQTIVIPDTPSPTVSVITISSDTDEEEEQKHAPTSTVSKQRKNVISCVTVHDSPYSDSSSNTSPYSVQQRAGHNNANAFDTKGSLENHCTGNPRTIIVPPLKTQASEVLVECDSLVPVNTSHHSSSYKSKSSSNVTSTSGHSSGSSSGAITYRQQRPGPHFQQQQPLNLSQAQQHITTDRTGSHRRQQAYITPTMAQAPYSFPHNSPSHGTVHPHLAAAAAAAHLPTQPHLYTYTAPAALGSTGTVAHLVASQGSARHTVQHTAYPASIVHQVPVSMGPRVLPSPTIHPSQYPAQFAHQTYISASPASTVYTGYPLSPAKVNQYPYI", "description": "as §1"}, "ROS1": {"target": "ROS1 (Homo sapiens, UniProt P08922)", "description": "as §1"}, "INSR": {"target": "INSR (Homo sapiens, UniProt P06213)", "sequence (P06213 whole entry)": "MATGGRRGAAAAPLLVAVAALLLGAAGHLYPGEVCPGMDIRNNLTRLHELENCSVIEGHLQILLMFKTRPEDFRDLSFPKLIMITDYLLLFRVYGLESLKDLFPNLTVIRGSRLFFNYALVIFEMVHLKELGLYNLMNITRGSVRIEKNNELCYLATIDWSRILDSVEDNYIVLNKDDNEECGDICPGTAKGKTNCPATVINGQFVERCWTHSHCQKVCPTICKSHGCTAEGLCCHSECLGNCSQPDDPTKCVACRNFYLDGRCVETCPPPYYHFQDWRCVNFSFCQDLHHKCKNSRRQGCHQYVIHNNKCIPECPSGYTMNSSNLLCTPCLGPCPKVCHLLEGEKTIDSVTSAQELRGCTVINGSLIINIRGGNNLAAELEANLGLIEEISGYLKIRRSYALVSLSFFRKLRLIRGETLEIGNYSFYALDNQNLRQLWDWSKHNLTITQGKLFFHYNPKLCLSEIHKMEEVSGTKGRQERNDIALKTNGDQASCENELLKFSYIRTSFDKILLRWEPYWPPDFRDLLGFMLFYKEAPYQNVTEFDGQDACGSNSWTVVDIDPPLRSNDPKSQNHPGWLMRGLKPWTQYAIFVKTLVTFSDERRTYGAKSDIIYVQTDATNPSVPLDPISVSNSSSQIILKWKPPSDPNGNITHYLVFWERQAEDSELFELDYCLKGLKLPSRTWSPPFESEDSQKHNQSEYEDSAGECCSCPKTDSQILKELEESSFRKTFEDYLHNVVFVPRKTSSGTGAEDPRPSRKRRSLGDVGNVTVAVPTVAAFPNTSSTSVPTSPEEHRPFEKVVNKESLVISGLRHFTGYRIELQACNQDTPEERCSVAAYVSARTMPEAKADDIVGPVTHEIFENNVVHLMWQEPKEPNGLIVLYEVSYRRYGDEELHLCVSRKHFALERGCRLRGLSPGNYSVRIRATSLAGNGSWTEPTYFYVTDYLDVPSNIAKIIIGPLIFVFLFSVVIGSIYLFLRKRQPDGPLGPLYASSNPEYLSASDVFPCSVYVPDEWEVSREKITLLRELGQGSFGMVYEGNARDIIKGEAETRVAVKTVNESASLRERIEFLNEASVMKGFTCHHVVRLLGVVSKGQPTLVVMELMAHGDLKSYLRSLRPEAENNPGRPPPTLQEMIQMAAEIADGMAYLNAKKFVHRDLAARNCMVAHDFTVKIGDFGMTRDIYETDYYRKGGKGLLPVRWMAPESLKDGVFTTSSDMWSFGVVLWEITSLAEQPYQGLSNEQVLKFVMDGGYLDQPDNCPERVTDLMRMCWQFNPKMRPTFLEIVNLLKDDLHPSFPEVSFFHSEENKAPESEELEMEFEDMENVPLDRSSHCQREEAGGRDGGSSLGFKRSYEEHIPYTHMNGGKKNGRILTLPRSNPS", "description": "as §1"}, "NEK1": {"target": "NEK1 (Homo sapiens, UniProt Q96PY6)", "description": "as §1"}, "SGK3": {"target": "SGK3 (Homo sapiens, UniProt Q96BR1)", "sequence (Q96BR1 whole entry)": "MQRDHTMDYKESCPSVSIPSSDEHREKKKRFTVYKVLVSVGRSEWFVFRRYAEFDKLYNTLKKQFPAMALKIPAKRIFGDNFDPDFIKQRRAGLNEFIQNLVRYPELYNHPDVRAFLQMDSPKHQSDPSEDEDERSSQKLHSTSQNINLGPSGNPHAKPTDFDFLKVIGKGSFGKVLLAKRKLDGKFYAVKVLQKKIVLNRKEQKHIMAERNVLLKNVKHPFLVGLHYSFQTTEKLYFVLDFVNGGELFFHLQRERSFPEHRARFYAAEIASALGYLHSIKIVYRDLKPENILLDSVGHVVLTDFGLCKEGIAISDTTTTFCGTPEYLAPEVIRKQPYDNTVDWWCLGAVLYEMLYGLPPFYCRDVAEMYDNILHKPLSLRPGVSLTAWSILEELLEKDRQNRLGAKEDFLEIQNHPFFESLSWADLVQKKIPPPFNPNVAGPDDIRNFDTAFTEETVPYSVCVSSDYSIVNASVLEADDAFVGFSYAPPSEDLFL", "description": "as §1"}, "KIT(D816H)": {"target": "KIT(D816H) (Homo sapiens, UniProt P10721, D816H)", "description": "as §1"}, "WNK1": {"target": "WNK1 (Homo sapiens, UniProt Q9H4A3)", "description": "as §1"}, "ALK": {"target": "ALK (Homo sapiens, UniProt Q9UM73)", "description": "as §1"}, "ERK2": {"target": "T4, ERK2 (Homo sapiens, UniProt P28482)", "T4 construct": "gene MAPK1", "description": "as §1"}, "MAK": {"target": "MAK (Homo sapiens, UniProt P20794)", "sequence (P20794 whole entry)": "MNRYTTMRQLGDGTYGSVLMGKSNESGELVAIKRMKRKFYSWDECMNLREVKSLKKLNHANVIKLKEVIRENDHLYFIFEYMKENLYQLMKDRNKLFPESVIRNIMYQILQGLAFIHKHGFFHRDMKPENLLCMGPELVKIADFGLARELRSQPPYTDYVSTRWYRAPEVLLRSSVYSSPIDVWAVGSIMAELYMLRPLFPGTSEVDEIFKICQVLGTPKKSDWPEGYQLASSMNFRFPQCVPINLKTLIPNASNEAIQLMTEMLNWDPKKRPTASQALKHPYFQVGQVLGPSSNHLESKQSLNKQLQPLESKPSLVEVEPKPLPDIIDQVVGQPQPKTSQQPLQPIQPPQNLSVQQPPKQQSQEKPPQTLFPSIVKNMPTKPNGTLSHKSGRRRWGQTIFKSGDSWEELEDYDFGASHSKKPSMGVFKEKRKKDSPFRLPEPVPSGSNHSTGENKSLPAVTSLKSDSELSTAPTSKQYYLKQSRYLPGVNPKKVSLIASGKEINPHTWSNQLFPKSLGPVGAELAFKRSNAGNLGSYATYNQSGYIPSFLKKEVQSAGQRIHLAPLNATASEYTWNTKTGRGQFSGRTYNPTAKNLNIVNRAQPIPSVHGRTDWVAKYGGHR", "description": "as §1"}}, "data": [{"smiles": "c1ccc2c(c1)Sc1ccccc1N2CCN1CCOCC1", "note": "[J54]", "values": [{"measurement": "remaining binding", "setting": "GSK3A", "result": 80, "unit": "%"}, {"measurement": "remaining binding", "setting": "PDPK1", "result": 92, "unit": "%"}, {"measurement": "remaining binding", "setting": "YES", "result": 100, "unit": "%"}, {"measurement": "remaining binding", "setting": "OSR1", "result": 100, "unit": "%"}, {"measurement": "remaining binding", "setting": "CDKL5", "result": 100, "unit": "%"}, {"measurement": "remaining binding", "setting": "ERBB4", "result": 100, "unit": "%"}, {"measurement": "remaining binding", "setting": "PCTK3", "result": 100, "unit": "%"}, {"measurement": "remaining binding", "setting": "CSNK2A2", "result": 77, "unit": "%"}, {"measurement": "remaining binding", "setting": "TLK2", "result": 23, "unit": "%"}, {"measurement": "remaining binding", "setting": "HIPK2", "result": 100, "unit": "%"}, {"measurement": "remaining binding", "setting": "ROS1", "result": 100, "unit": "%"}, {"measurement": "remaining binding", "setting": "INSR", "result": 68, "unit": "%"}, {"measurement": "remaining binding", "setting": "NEK1", "result": 95, "unit": "%"}, {"measurement": "remaining binding", "setting": "SGK3", "result": 94, "unit": "%"}, {"measurement": "remaining binding", "setting": "KIT(D816H)", "result": 62, "unit": "%"}, {"measurement": "remaining binding", "setting": "WNK1", "result": 94, "unit": "%"}, {"measurement": "remaining binding", "setting": "ALK", "result": 59, "unit": "%"}, {"measurement": "remaining binding", "setting": "ERK2", "result": 97, "unit": "%"}, {"measurement": "remaining binding", "setting": "MAK", "result": 31, "unit": "%"}]}]}
